According to patent publication US8592603B2, “Synthesis of 2-(4-aminophenyl) benzothiazole derivatives and use thereof” (Kaohsiung Medical University, priority 2011, dated 2013):
Where two headings read alike, the source gives them in different places.

Experiments:
Type in all cases: cell-based, human
[1] = tested on: JNK MAPK; test: Western blot analysis of MAPK phosphorylation: JNK; conditions: BCC cells, 6f-UVA (FIG. 6A)
Description: (A) After exposure to different concentration of 6f-UVA, cell lysates were collected and immunoblotted with specific antibodies as indicated. For the internal control, the same amounts of protein extract were also probed with antibody against actin. (B) As a control, the expression level of p-ERK was determined in the presence of oligomycin (25 μM) and ATP (1×10^−4M)
Total cell extracts from cultured BCC cells were obtained by lysing the cells in ice-cold RIPA buffer (1×PBS, 1% NP-40, 0.5% sodium deoxycholate, 0.1% SDS) containing 100 μg/mL PMSF, 2 μg/mL aprotinin, 2 μg/mL leupeptin and 100 μg/mL NaF. After centrifugation at 14,000 g for 30 min, protein in the supernatants was quantified by Bradford method (Bio-Rad). Forty micrograms of protein per lane was applied in 10% SDS-poly-acrylamide gel. After electrophoresis, protein was transferred from the gel to polyvinylidene difluoride (PVDF) membrane (Millipore, Bedford, Mass.). The membranes were blocked at room temperature for 1 h in PBS+0.1% Tween 20 (PBS-T) containing 5% skim milk. After being briefly rinsed with PBS-T, the blots were probed with respective primary antibodies at room temperature for 2 h or at 4° C. overnight. […] The relative amounts of specific proteins were quantified by densitometry scanning of X-ray films and analyzed by Eagle Eye Image System (Stratagene, La Jolla, Calif.)

[2] = tested on: BCC cells; test: Determination of intracellular ROS level (DCFH-DA); conditions: BCC cells, 6f-UVA, DCFH-DA probe (FIG. 5A)
Description: (A) 6f-UVA induced ROS generation in BCC cells. Histogram of fluorescence vs cell count in BCC cells with various concentrations of 6f-UVA and stained with DCFH-DA. As a control, ROS was measured in the presence of catalase, a H2O2 scavenger. (B) The ΔΨmt of BCC cells after exposure to 6f-UVA. Cells were treated with 0, 2, and 4 μM Formula 6f for 4 h followed by 1 J/cm2 UVA irradiation, then stained with DiOC6 and analyzed immediately by flow cytometry as described under Materials and Methods. The number in M1 indicates the percentage of cells with reduced ΔΨmt. Approximately 10000 cells from each group were analyzed by flow cytometry. (C) Relative ATP levels were calculated as the percentage of the 0 μM level. Similar results were obtained in three independent experiments. *p<0.05, ** p<0.01 as compared with the control.
To evaluate intracellular reactive oxygen species (ROS) levels, 2′,7′-dichlorofluorescein diacetate (DCFH-DA, Molecular Probes) fluorescent dye was used to clarify this issue. The nonpolar DCFH-DA is converted to the polar derivative DCFH by esterases when it is taken up by the cell. DCFH is nonfluorescent but is rapidly oxidized to the highly fluorescent DCF by intracellular H2O2 or nitric oxide. […] The fluorescence of the samples was measured with a flow cytometer. The 2′,7′-dichlorofluorescein (DCF) data were recorded using FL-1 photomultiplier.

[3] = tested on: BCC cells; test: Cell viability by MTT assay after compound and UVA irradiation; conditions: for viability at 4 µM: Homo sapiens, BCC, light or radiation study, read-out: cell viability compared with untreated controls
Description: (A) Dose-response curves for compound 6 ftested against BCC cells. Cells were seeded in a 96-well plate at 2500 cells per well and cultivated overnight until cell attachment. 6f-UVA at the indicated concentration was added into the culture media in triplicate and incubated for 4 h before 1 J/cm2 UVA irradiation. Twenty-four hours after irradiation, the MTT reagent was added into each well. The absorbance is directly proportional to the number of living cells. (B) To clarify whether 6-UVA has more cytotoxicity than either UVA irradiation alone or treatment with 6 alone, cells were cultured with or without 4 μM Formula 6f before different dosage of UVA irradiation. *p<0.05, **p<0.01 as compared with the control.
The method for UVA irradiation was described in the previous study (Kao, C. S.; Yu, H. S. J. Invest. Dermatol. 1992, 98, 734). For UVA irradiation, a specific UVA lamp emitting a peak wavelength of 365 nm with intensity of 0.75 mW/cm^2 (Vilber Lourmat, Moune La Vallee, Cedex, France) was used. The cultured cells were pretreated with different agents at 4 μM or pretreated with various concentrations (0-4 μM) of Formula 6 for 4 h before UVA irradiation. The cultured cells were rinsed with phosphate-buffered saline (PBS) and then irradiated with 1 J/cm^2 UVA in PBS to avoid the formation of medium-derived toxic photoproducts induced by UV exposure. The doses of irradiation were measured using a UVX radiometer (UVP, San Gabriel, Calif., USA). Immediately after phototreatment, PBS was removed and media were added to the cells. All the following experiments were performed three times in triplicate.
Cell viability was assessed by the MTT assay, a mitochondrial function assay based on the ability of viable cells to reduce the redox indicator MTT to insoluble formazan crystals by mitochondrial dehydrogenase. Briefly, cells were seeded in a 96-well plate at the cell density of 2500 cells/well. After an overnight incubation, the cells were treated with compounds at 4 μM and incubated for 24 h. The medium was then discarded and replaced with 10 μL of MTT dye. Plates were incubated at 37° C. for 2 h. The resulting formazan crystals were solubilized in 100 μL DMSO, and the optical density was read at 540 nm with a microplate reader (MRX-II, Dynex technology, Chantilly, Va.).

Question: Which results are given for `Nc1ccc(-c2nc3ccc(C(F)(F)F)cc3s2)cc1` [Formula 6f, 2-(4-Aminophenyl)-6-trifluoromethylbenzothiazole]?
Answer: phosphorylation of JNK MAPK [1]: did not stimulate the phosphorylation; intracellular H2O2 levels [2]: significantly increased; cell survival ([3]; BCC cells, 4 μM for 4 h, 1 J/cm^2 UVA, 24 h after exposure (FIG. 3A)): below 50%; inhibitory effect on cell viability ([3]; BCC cells, different concentrations for 4 h, 1 J/cm^2 UVA (FIG. 3A)): dependent on drug concentration; viability at 4 µM ([3]; BCC cells, 0.25 J/cm^2 UVA): 71%; viability at 4 µM ([3]; BCC cells, 0.5 J/cm^2 UVA): 65%; viability at 4 µM ([3]; BCC cells, 1 J/cm^2 UVA): 45%; cytotoxicity against BCC cells ([3]; compound alone, without UVA irradiation (FIG. 3B)): does not have cytotoxicity
